Data from patent publication US9133104B2 (Chroma Therapeutics Ltd., priority 2005, dated 2015).

Key:
HUT cancer cell line = assay: Cell inhibition assay (SRB cell viability), HUT; format: cell-based; conditions: HUT cells, 72 h, IC50 range
In short: (§1)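 Log-phase Hela, U937 and HUT cells were seeded at 1000 cells/well, grown 24 h, then exposed to compound (20 uM final) for 72 h. Viability was read by sulphorhodamine B staining and expressed as % inhibition relative to DMSO control. IC50 values came from sigmoidal variable-slope fits of eight concentrations.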

Hela cancer cell line = assay: Cell inhibition assay (SRB cell viability), Hela; format: cell-based; conditions: 72 h, Hela cells, IC50 range
In short: as §1

[1] = target: T1, histone deacetylase activity (HeLa nuclear extract); assay: HDAC fluorescent activity assay (Biomol Fluor de Lys), HeLa nuclear extract; format: biochemical; conditions: Fluor de Lys substrate, IC50 range
T1 construct: Histone deacetylase activity from crude nuclear extract derived from HeLa cells was used for screening
In short: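 Crude HeLa nuclear extract (20 mM Hepes, 100 mM KCl, 0.2 mM EDTA, 0.5 mM DTT, 0.2 mM PMSF, 20% glycerol) incubated with acetyl-lysine Fluor de Lys substrate ± inhibitor; developer generates fluorophore. Background-subtracted % of vehicle control; IC50 from eight-point variable-slope sigmoidal fit.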

U937 cancer cell line = assay: Cell inhibition assay (SRB cell viability), U937; format: cell-based; conditions: Homo sapiens, U-937, U937 cells, 72 h, IC50 range
In short: as §1

IC50 (HUT cancer cell line) [nM] | IC50 (Hela cancer cell line; Homo sapiens, HeLa) [nM] | IC50 [1] [nM] | IC50 (U937 cancer cell line) [nM] | IC50 (Hela cancer cell line) [nM] | Compound
330 to 3300 | 330 to 3300 | 101 to 1000 | 330 to 3300 | – | CCOC(=O)[C@H](Cc1ccccc1)NC(=O)[C@H]1Cc2c([nH]c3ccccc23)CN1C(=O)CCCCCCC(=O)NO [Compound 5, (S)-2-{[(R)-2-(7-Hydroxycarbamoyl-heptanoyl)-2,3,4,9-tetrahydro-1H-beta-carboline-3-carbonyl]-amino}-3-phenyl-propionic acid ethyl ester]
330 to 3300 | 330 to 3300 | 101 to 1000 | 330 to 3300 | – | CC(C)(C)OC(=O)[C@@H](NCc1cccc(NC(=O)CCCCCCC(=O)NO)c1)c1ccccc1 [Compound 35, (S)-[3-(7-Hydroxycarbamoyl-heptanoylamino)-benzylamino]-phenyl-acetic acid tert-butyl ester]
330 to 3300 | 330 to 3300 | < 100 | 330 to 3300 | – | CCOC(=O)[C@H](Cc1ccccc1)NCc1cccc(NC(=O)CCCCCCC(=O)NO)c1 [Compound 26, (S)-2-[3-(7-Hydroxycarbamoyl-heptanoylamino)-benzylamino]-3-phenyl-propionic acid ethyl ester]
330 to 3300 | – | 101 to 1000 | 330 to 3300 | 330 to 3300 | COc1ccc2[nH]c3c(c2c1)CCN(C(=O)CCCCCCC(=O)NO)C3C(=O)N[C@H](C(=O)OC1CCCC1)c1ccccc1 (stereo partly drawn) [Compound 11, (S)-{[2-(7-Hydroxycarbamoyl-heptanoyl)-6-methoxy-2,3,4,9-tetrahydro-1H-beta-carboline-1-carbonyl]-amino}-phenyl-acetic acid cyclopentyl ester]
330 to 3300 | > 3300 | 101 to 1000 | > 3300 | – | CC(C)C[C@H](NC(=O)c1cccc(NC(=O)CCCCCCC(=O)NO)c1)C(=O)OC1CCCC1 [Compound 62, (S)-2-[3-(7-Hydroxycarbamoyl-heptanoylamino)-benzoylamino]-4-methyl-pentanoic acid cyclopentyl ester]
> 3300 | > 3300 | 101 to 1000 | > 3300 | – | O=C(CCCCCCC(=O)Nc1ccc(CN[C@H](C(=O)O)c2ccccc2)cc1)NO [Compound 21, (S)-[4-(7-Hydroxycarbamoyl-heptanoylamino)-benzylamino]-phenyl-acetic acid]
330 to 3300 | 330 to 3300 | 101 to 1000 | 330 to 3300 | – | CC(C)(C)SC[C@H](NCc1ccc(CNCc2ccc3cc(C(=O)NO)sc3c2)cc1)C(=O)OC1CCCC1 [Compound 113, (R)-3-tert-Butylsulfanyl-2-(4-{[(2-hydroxycarbamoyl-benzo[b]thiophen-6-ylmethyl)-amino]-methyl}-benzylamino)-propionic acid cyclopentyl ester]
330 to 3300 | > 3300 | 101 to 1000 | 330 to 3300 | – | CC(C)C[C@H](NC(=O)[C@@H]1Cc2ccc(NC(=O)CCCCCCC(=O)NO)cc2CN1)C(=O)OC1CCCC1 [Compound 96, (S)-2-{[(S)-7-(7-Hydroxycarbamoyl-heptanoylamino)-1,2,3,4-tetrahydro-isoquinoline-3-carbonyl]-amino}-4-methyl-pentanoic acid cyclopentyl ester]
330 to 3300 | 330 to 3300 | > 1000 | 330 to 3300 | – | O=C(CCCCCCC(=O)N1CCc2c([nH]c3ccccc23)C1CN[C@H](C(=O)OC1CCCC1)c1ccccc1)NO (stereo partly drawn) [Compound 42, (S)-{[2-(7-Hydroxycarbamoyl-heptanoyl)-2,3,4,9-tetrahydro-1H-beta-carbolin-1-ylmethyl]-amino}-phenyl-acetic acid cyclopentyl ester]
> 3300 | 330 to 3300 | 101 to 1000 | 330 to 3300 | – | CC(C)C[C@H](NCc1cccc(NCc2ccc3cc(C(=O)NO)sc3c2)c1)C(=O)OC1CCCC1 [Compound 133, (S)-2-{3-[(2-Hydroxycarbamoyl-benzo[b]thiophen-6-ylmethyl)-amino]-benzylamino}-4-methyl-pentanoic acid cyclopentyl ester]
330 to 3300 | > 3300 | 101 to 1000 | 330 to 3300 | – | O=C(CCCCCCC(=O)N1Cc2ccccc2C[C@H]1C(=O)N[C@H](C(=O)OC1CCCC1)c1ccccc1)NO [Compound 44, (S)-{[(S)-2-(7-Hydroxycarbamoyl-heptanoyl)-1,2,3,4-tetrahydro-isoquinoline-3-carbonyl]-amino}-phenyl-acetic acid cyclopentyl ester]
